Source: patent US20100004284A1, “Novel Heterocyclic Compounds as Positive Allosteric Modulators of Metabotropic Glutamate Receptors” (ADDEX PHARMA SA, priority 2005, published 2010)

What was measured:
[1] = biological target: T1, mGluR5 (Rattus norvegicus, UniProt P31424); settings: cited from earlier work
T1 construct: positive allosteric modulators of mGluR5 receptors in native preparations; endogenous in cells; host or cells: primary cortical astrocytes from Sprague-Dawley rat embryos (E16-19)

[2] = biological target: T2, rat mGluR5 (Rattus norvegicus, UniProt P31424); assay: mGluR5 assay on HEK-expressing rat mGluR5 (fluorescent cell based Ca2+ mobilization assay); settings: for activation of rat mGluR5 receptors without co-addition of glutamate or mGluR5 agonist: HEK-rat mGluR5 cell line; for EC50: HEK-293 cells stably expressing rat mGluR5, no co-addition of glutamate, mean of at least three independent experiments in duplicate, read-out: Ca++ Flux (mean EC50)
T2 construct: expressed in transfected cells
Procedure: Positive functional expression of HEK-293 cells stably expressing rat mGluR5 receptor was determined by measuring intracellular Ca^2+ changes using a Fluorometric Imaging Plate Reader (FLIPR, Molecular Devices, Sunnyvale, Calif.) in response to glutamate or selective known mGluR5 agonists and antagonists. Rat mGluR5RT-PCR products in HEK-293 cells were sequenced and found 100% identical to rat mGluR5Genbank reference sequence (NM_017012). HEK-293 cells expressing rmGluR5 were maintained in media containing DMEM, dialyzed Fetal Bovine Serum (10%), Glutamax™ (2 mM), Penicillin (100 units/ml), Streptomycin (100 μg/ml), Geneticin (100 μg/ml) and Hygromycin-B (40 μg/ml) at 37° C./5% CO2.
After one day of incubation, cells were washed with assay buffer containing: 142 mM NaCl, 6 mM KCl, 1 mM […], 1 mM CaCl2, 20 mM HEPES, 1 g/L glucose, 0.125 mM sulfinpyrazone, pH 7.4. After 60 min of loading with 4 uM Fluo-4 (TefLabs, Austin, Tex.), the cells were washed three times with 50 μl of PBS Buffer and resuspended in 45 μl of assay Buffer. The plates were then transferred to a Fluorometric Imaging Plate Reader (FLIPR, Molecular Devices, Sunnyvale, Calif.) for the assessment of intracellular calcium flux. After monitoring the baseline fluorescence for 10 seconds, increasing concentrations of representative compound (from 0.01 to 60 μM) of the present invention diluted in Assay Buffer (15 μl of 4× dilutions) was added to the cell. The final DMSO concentration in the assay was 0.3%. In each experiment, fluorescence was then monitored as a function of time for 3 minutes and the data analyzed using Microsoft Excel and GraphPad Prism. Each data point was also measured two times.
Under these experimental conditions, this HEK-rat mGluR5 cell line is able to directly detect positive allosteric modulators without the need of co-addition of glutamate or mGluR5 agonist.
The concentration-response curves of representative compounds of the present invention were generated using the Prism GraphPad software (Graph Pad Inc, San Diego, USA). The curves were fitted to a four-parameter logistic equation:
(Y=Bottom+(Top−Bottom)/(1+10̂((Log EC50−X)*Hill Slope)
allowing determination of EC50 values.
The Table 5 below represents the mean EC50 obtained from at least three independent experiments of selected molecules performed in duplicate.

T2 sequence (P31424 21-1171 isoform P31424-2 limits assumed): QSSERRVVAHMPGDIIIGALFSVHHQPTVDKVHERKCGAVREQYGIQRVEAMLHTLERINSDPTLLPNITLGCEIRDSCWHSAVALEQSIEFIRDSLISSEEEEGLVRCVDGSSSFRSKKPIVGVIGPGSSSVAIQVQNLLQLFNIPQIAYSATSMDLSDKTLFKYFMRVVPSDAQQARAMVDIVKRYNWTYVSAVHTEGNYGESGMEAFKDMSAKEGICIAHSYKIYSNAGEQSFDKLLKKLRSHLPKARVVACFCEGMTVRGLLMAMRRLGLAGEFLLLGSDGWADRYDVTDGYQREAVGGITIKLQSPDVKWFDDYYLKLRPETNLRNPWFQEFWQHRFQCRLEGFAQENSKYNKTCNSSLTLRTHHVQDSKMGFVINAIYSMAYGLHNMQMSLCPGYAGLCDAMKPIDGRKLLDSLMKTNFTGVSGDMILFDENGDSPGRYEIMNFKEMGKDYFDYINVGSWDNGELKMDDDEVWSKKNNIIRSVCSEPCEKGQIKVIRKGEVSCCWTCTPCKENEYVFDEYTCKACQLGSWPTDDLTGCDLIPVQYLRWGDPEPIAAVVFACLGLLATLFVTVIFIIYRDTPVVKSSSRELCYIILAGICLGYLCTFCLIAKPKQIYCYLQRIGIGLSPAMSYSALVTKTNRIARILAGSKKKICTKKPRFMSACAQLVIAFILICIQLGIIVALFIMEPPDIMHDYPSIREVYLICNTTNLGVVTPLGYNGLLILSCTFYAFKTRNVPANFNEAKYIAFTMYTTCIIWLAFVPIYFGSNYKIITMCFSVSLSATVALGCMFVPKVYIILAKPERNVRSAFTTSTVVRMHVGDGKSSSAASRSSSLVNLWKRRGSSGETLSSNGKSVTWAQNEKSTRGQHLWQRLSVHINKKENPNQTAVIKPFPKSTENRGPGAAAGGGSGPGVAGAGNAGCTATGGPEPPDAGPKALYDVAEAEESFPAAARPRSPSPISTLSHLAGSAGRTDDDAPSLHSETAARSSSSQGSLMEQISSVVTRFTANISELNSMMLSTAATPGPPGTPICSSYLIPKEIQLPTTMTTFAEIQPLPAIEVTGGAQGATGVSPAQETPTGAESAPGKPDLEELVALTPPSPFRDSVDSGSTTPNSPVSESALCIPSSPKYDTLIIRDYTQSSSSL
T1 sequence (P31424 21-1203): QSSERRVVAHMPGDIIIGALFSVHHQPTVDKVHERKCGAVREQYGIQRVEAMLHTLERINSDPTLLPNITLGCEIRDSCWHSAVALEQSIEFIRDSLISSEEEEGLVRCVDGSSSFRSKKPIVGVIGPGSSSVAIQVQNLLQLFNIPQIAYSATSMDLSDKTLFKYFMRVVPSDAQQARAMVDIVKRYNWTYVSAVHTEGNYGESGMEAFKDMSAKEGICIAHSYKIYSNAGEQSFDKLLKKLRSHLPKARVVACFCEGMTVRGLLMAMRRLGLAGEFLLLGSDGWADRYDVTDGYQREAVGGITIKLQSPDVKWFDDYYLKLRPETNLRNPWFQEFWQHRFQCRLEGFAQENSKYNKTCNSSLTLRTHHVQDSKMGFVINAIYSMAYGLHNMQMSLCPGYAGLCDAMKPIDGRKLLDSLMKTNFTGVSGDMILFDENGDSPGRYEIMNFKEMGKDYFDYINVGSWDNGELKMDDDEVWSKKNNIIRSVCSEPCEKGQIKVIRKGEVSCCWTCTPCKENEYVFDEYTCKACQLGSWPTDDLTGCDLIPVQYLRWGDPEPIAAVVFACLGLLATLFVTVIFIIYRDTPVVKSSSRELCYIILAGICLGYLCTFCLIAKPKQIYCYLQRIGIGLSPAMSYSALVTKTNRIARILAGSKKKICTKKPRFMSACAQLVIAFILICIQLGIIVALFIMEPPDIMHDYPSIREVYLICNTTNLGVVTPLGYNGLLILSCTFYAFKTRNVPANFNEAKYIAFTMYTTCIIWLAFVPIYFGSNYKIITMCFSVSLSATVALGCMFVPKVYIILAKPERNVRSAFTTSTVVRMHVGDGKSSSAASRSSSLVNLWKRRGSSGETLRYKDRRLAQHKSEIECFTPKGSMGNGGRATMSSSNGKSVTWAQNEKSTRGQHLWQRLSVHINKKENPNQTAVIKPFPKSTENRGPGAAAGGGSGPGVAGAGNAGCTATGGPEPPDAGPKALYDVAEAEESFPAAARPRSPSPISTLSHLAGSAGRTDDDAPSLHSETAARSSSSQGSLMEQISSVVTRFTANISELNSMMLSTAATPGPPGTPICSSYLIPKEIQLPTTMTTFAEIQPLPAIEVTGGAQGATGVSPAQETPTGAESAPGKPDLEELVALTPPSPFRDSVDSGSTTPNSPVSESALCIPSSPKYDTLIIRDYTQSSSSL

EC50 [2]	SMILES	also measured
–	N#Cc1cccc(C(=O)Nc2cc(-c3ccccc3)nn2-c2ccccc2)c1 [CDPPB, reference compound]	activity in rat cortical astrocytes culture in the absence of added glutamate [1]: inactive; activation of rat mGluR5 receptors without co-addition of glutamate or mGluR5 agonist [2]: activating
–	O=C(Nc1ccc(Cl)cc1CN1C(=O)c2ccccc2C1=O)c1ccccc1O [CPPHA, reference compound]	activity in rat cortical astrocytes culture in the absence of added glutamate [1]: inactive; activation of rat mGluR5 receptors without co-addition of glutamate or mGluR5 agonist [2]: activating
–	Fc1cccc(/C=N/N=C/c2cccc(F)c2)c1 [DFB, reference compound]	activity in rat cortical astrocytes culture in the absence of added glutamate [1]: inactive; activation of rat mGluR5 receptors without co-addition of glutamate or mGluR5 agonist [2]: activating
< 1000 nM	O=C(c1ccc(F)c(F)c1)N1CCC[C@H](c2nc(Cc3ccc(F)cc3)no2)C1 [Example 2, (3,4-Difluoro-phenyl)-{(S)-3-[3-(4-fluoro-benzyl)-[1,2,4]oxadiazol-5-yl]-piperidin-1-yl}-methanone]	–
< 1000 nM	O=C(c1ccc(F)c(F)c1)N1CCC[C@H](c2noc(Cc3ccc(F)cc3)n2)C1 [Example 3, (3,4-Difluoro-phenyl)-{(S)-3-[5-(4-fluoro-benzyl)-[1,2,4]oxadiazol-3-yl]-piperidin-1-yl}-methanone]	–
< 1000 nM	O=C(c1ccc(F)cc1)N1CCC[C@H](c2noc(Cc3ccc(F)cc3)n2)C1 [Example 4, {(S)-3-[5-(4-Fluoro-benzyl)-[1,2,4]oxadiazol-3-yl]-piperidin-1-yl}-(4-fluoro-phenyl)-methanone]	–
1000 to 10000 nM	C[C@@H](c1ccccc1)c1nc([C@H]2CCCN(C(=O)c3ccc(F)cc3)C2)no1 [Example 5, (4-Fluoro-phenyl)-{(S)-3-[5-((S)-1-phenyl-ethyl)-[1,2,4]oxadiazol-3-yl]-piperidin-1-yl}-methanone]	–
> 10000 nM	C[C@H](c1ccccc1)c1nc([C@H]2CCCN(C(=O)c3ccc(F)cc3)C2)no1 [Example 6, (4-Fluoro-phenyl)-{(S)-3-[5-((R)-1-phenyl-ethyl)-[1,2,4]oxadiazol-3-yl]-piperidin-1-yl}-methanone]	–
< 1000 nM	O=C(c1ccc(F)cc1)N1CCC[C@H](c2noc(Cc3ccccc3)n2)C1 [Example 7, [(S)-3-(5-Benzyl-[1,2,4]oxadiazol-3-yl)-piperidin-1-yl]-(4-fluoro-phenyl)-methanone]	melting point: 75 °C
> 10000 nM	O=C(c1ccc(F)cc1)N1CCC[C@H](c2noc([C@@H](O)c3ccccc3)n2)C1 [Example 8, (4-Fluoro-phenyl)-{(S)-3-[5-((S)-hydroxy-phenyl-methyl)-[1,2,4]oxadiazol-3-yl]-piperidin-1-yl}-methanone]	melting point: 168 to 172 °C
1000 to 10000 nM	O=C(c1ccc(F)cc1)N1CCC[C@H](c2noc([C@H](O)c3ccccc3)n2)C1 [Example 9, (4-Fluoro-phenyl)-{(S)-3-[5-((R)-hydroxy-phenyl-methyl)-[1,2,4]oxadiazol-3-yl]-piperidin-1-yl}-methanone]	–
1000 to 10000 nM	O=C(c1ccc(F)cc1)N1CCC[C@H](c2noc(CCc3ccccc3)n2)C1 [Example 10, (4-Fluoro-phenyl)-[(S)-3-(5-phenethyl-[1,2,4]oxadiazol-3-yl)-piperidin-1-yl]-methanone]	–
1000 to 10000 nM	O=C(c1ccccc1)c1nc([C@H]2CCCN(C(=O)c3ccc(F)cc3)C2)no1 [Example 11, {3-[(S)-1-(4-Fluoro-benzoyl)-piperidin-3-yl]-[1,2,4]oxadiazol-5-yl}-phenyl-methanone]	melting point: 80 to 83 °C
1000 to 10000 nM	O=C(c1ccc(F)cc1)N1CCC[C@H](c2noc(Nc3ccccc3)n2)C1 [Example 12, (4-Fluoro-phenyl)-[(S)-3-(5-phenylamino-[1,2,4]oxadiazol-3-yl)-piperidin-1-yl]-methanone]	–
1000 to 10000 nM	O=C(c1ccc(F)cc1)N1CCC[C@H](c2noc(NCc3ccc(F)cc3)n2)C1 [Example 13, {(S)-3-[5-(4-Fluoro-benzylamino)-[1,2,4]oxadiazol-3-yl]-piperidin-1-yl}-(4-fluoro-phenyl)-methanone]	–
< 1000 nM	O=C(c1ccc(F)cc1)N1CCC[C@H](n2nnc(Cc3ccccc3)n2)C1 [Example 14, [(S)-3-(5-Benzyl-tetrazol-2-yl)-piperidin-1-yl]-(4-fluoro-phenyl)-methanone]	–
1000 to 10000 nM	O=C(c1ccc(F)cc1)N1CCCC(c2nc(Oc3ccc(F)cc3)no2)C1 (centres unmarked) [Example 15, {3-[3-(4-Fluoro-phenoxy)-[1,2,4]oxadiazol-5-yl]-piperidin-1-yl}-(4-fluoro-phenyl)-methanone]	–
< 1000 nM	O=C(c1ccc(F)cc1)N1CCCC(c2nc(Oc3ccccc3)no2)C1 (centres unmarked) [Example 16, (4-Fluoro-phenyl)-[3-(3-phenoxy-[1,2,4]oxadiazol-5-yl)-piperidin-1-yl]-methanone]	melting point: 96 to 100 °C
< 1000 nM	O=C(c1ccc(F)nc1)N1CCC[C@H](c2nc(Oc3ccccc3)no2)C1 [Example 17, (6-Fluoro-pyridin-3-yl)-[(S)-3-(3-phenoxy-[1,2,4]oxadiazol-5-yl)-piperidin-1-yl]-methanone]	–
1000 to 10000 nM	O=C(c1ccc(F)nc1)N1CCC[C@H](c2nc(Oc3ccccc3F)no2)C1 [Example 18, {(S)-3-[3-(2-Fluoro-phenoxy)-[1,2,4]oxadiazol-5-yl]-piperidin-1-yl}-(6-fluoro-pyridin-3-yl)-methanone]	–
< 1000 nM	O=C(c1ccc(F)nc1)N1CCC[C@H](c2nc(Oc3cccc(F)c3)no2)C1 [Example 19, {(S)-3-[3-(3-Fluoro-phenoxy)-[1,2,4]oxadiazol-5-yl]-piperidin-1-yl}-(6-fluoro-pyridin-3-yl)-methanone]	–
> 10000 nM	O=C(c1ccc(F)cc1)N1CCC[C@H](c2nc(Sc3ccccc3)no2)C1 [Example 20, (4-Fluoro-phenyl)-[(S)-3-(3-phenylsulfanyl-[1,2,4]oxadiazol-5-yl)-piperidin-1-yl]-methanone]	–
< 1000 nM	O=C(c1ccc(F)cc1)N1CCCC(c2nc(Oc3cccc(F)c3)no2)C1 (centres unmarked) [Example 21, {3-[3-(3-Fluoro-phenoxy)-[1,2,4]oxadiazol-5-yl]-piperidin-1-yl}-(4-fluoro-phenyl)-methanone]	melting point: 99 to 102 °C
1000 to 10000 nM	O=C(c1ccncc1F)N1CCC[C@H](c2nc(Oc3ccccc3)no2)C1 [Example 22, (3-Fluoro-pyridin-4-yl)-[(S)-3-(3-phenoxy-[1,2,4]oxadiazol-5-yl)-piperidin-1-yl]-methanone]	–
